Experimental data taken from the supplement of paper PMC10307832.

Key:
Assay in all cases: relative viability (nuclei count vs DMSO), 5 days (fraction); higher = more cells survive
[1] = compound: CN(C)C[C@@H]1CCn2cc(c3ccccc32)C2=C(C(=O)NC2=O)c2cn(c3ccccc23)CCO1 [Ruboxistaurin] + CC(=O)Nc1cccc(-n2c(=O)n(C3CC3)c(=O)c3c(Nc4ccc(I)cc4F)n(C)c(=O)c(C)c32)c1 [Trametinib] (partner 0.02 µM)
Method in brief: (§1)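 Lung cancer cell lines in 1536-well plates got either a single drug or a fixed anchor-drug dose together with five library-drug doses (not always all listed) in √10 steps, by pin tool, on the day after seeding. Nuclei were counted after 5 days, and relative viability is the treated-to-vehicle ratio of nuclei counts. Values are medians of duplicate plates.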

[2] = compound: CN(C)C[C@@H]1CCn2cc(c3ccccc32)C2=C(C(=O)NC2=O)c2cn(c3ccccc23)CCO1 [Ruboxistaurin] + C[C@@H](Oc1cc(-c2cnn(C3CCNCC3)c2)cnc1N)c1c(Cl)ccc(F)c1Cl [Crizotinib] (partner 1 µM)
Method in brief: as §1

[3] = compound: CN(C)C[C@@H]1CCn2cc(c3ccccc32)C2=C(C(=O)NC2=O)c2cn(c3ccccc23)CCO1 [Ruboxistaurin] + C[C@]1(O)C[C@@H](c2nc(-c3ccc4ccc(-c5ccccc5)nc4c3)c3c(N)nccn32)C1 [Linsitinib] (partner 1 µM)
Method in brief: as §1

[4] = compound: CN(C)C[C@@H]1CCn2cc(c3ccccc32)C2=C(C(=O)NC2=O)c2cn(c3ccccc23)CCO1 [Ruboxistaurin] + Nc1nc2[nH]cc(CCc3ccc(C(=O)N[C@@H](CCC(=O)O)C(=O)O)cc3)c2c(=O)[nH]1 [Pemetrexed] (partner 0.2 µM)
Method in brief: as §1

Ruboxistaurin + Olaparib = compound: CN(C)C[C@@H]1CCn2cc(c3ccccc32)C2=C(C(=O)NC2=O)c2cn(c3ccccc23)CCO1 [Ruboxistaurin] + O=C(c1cc(Cc2n[nH]c(=O)c3ccccc23)ccc1F)N1CCN(C(=O)C2CC2)CC1 [Olaparib] (partner 8 µM)
Method in brief: as §1

Row | Cell Line | relative viability ([1]; first compound 0.08 µM) | relative viability ([1]; first compound 0.8 µM) | relative viability ([1]; first compound 2.53 µM) | relative viability ([1]; first compound 8 µM) | relative viability ([2]; first compound 0.08 µM) | relative viability ([2]; first compound 0.8 µM) | relative viability ([2]; first compound 2.53 µM) | relative viability ([2]; first compound 8 µM) | relative viability ([3]; first compound 0.08 µM) | relative viability ([3]; first compound 0.8 µM) | relative viability ([3]; first compound 2.53 µM) | relative viability ([3]; first compound 8 µM) | relative viability ([4]; first compound 0.08 µM) | relative viability ([4]; first compound 0.8 µM) | relative viability ([4]; first compound 2.53 µM) | relative viability ([4]; first compound 8 µM) | relative viability (Ruboxistaurin + Olaparib; first compound 0.08 µM) | relative viability (Ruboxistaurin + Olaparib; first compound 0.8 µM) | relative viability (Ruboxistaurin + Olaparib; first compound 2.53 µM) | relative viability (Ruboxistaurin + Olaparib; first compound 8 µM)
1 | NCI-H596 | 0.892 | 0.766 | 0.727 | 0.796 | 1.03 | 0.981 | 1.03 | 0.795 | 1.14 | 1.01 | 1.08 | 0.857 | 0.542 | 0.473 | 0.478 | 0.444 | 0.545 | 0.59 | 0.692 | 0.659
2 | NCI-H647 | 0.568 | 0.374 | 0.473 | 0.431 | 1.03 | 0.849 | 1.15 | 0.995 | 1.2 | 0.923 | 1.24 | 1.02 | 0.173 | 0.222 | 0.196 | 0.161 | 0.575 | 0.563 | 0.912 | 0.562
3 | NCI-H650 | 1.1 | 0.914 | 1.01 | 0.952 | 0.785 | 0.775 | 0.733 | 0.729 | 0.94 | 0.799 | 1.06 | 0.801 | 0.995 | 0.948 | 0.981 | 0.817 | 0.462 | 0.352 | 0.47 | 0.425
4 | NCI-H661 | 0.667 | 0.528 | 0.681 | 0.703 | 0.991 | 0.924 | 1.08 | 1.08 | 0.809 | 0.538 | 0.718 | 0.545 | 0.932 | 0.873 | 0.921 | 0.874 | 0.844 | 0.717 | 0.795 | 0.81
5 | NCI-H838 | 0.58 | 0.461 | 0.513 | 0.504 | 0.899 | 0.729 | 1.03 | 0.817 | 1.09 | 0.91 | 1.02 | 0.744 | 0.248 | 0.222 | 0.222 | 0.225 | 0.867 | 0.751 | 0.838 | 0.641
6 | NCI-H1355 | 0.462 | 0.361 | 0.394 | 0.357 | 1.08 | 1 | 1.04 | 1 | 0.904 | 0.753 | 0.728 | 0.658 | 1.08 | 1 | 1.02 | 1.02 | 0.763 | 0.712 | 0.734 | 0.742
7 | NCI-H1437 | 0.517 | 0.526 | 0.577 | 0.477 | 0.984 | 0.829 | 0.958 | 1.08 | 1.01 | 0.941 | 1.17 | 0.746 | 0.309 | 0.299 | 0.315 | 0.313 | 0.661 | 0.613 | 0.666 | 0.712
8 | NCI-H1651 | 0.891 | 0.736 | 0.805 | 0.858 | 0.882 | 0.883 | 0.911 | 0.911 | 1.04 | 0.897 | 0.93 | 0.85 | 0.612 | 0.586 | 0.585 | 0.528 | 0.178 | 0.193 | 0.191 | 0.182
